Reference: PMC3532212 (PLoS ONE, 2012)
Several values for one entry are separate records, joined by “and”; a condition that tells them apart may be missing. Equal entries are not always repeated. Entries after “also recorded” stand apart in the source; their conditions may differ. Each block holds one molecule with its values, some of them ahead of it.

How the values were obtained:
[1] = system: conscious, telemetry-instrumented rats; assay: Telemetry-instrumented conscious rats, repeat-dosing hemodynamics; assay type: in vivo; details: conscious rat; for mean arterial pressure, average change in 24-mean values: 14-days of treatment; for mean arterial pressure increase relative to baseline, 24-hr mean over the treatment period: vehicle 3.7±0.5
Method: Mean arterial pressure was assessed in conscious, freely moving male Sprague Dawley rats (n = 6–8/group; Charles River) instrumented with telemetry transmitters (DSI-Ponemah) and housed in metabolism cages as previously described, [26]. Tested compounds were solubilized in a 0.5% Methylcellulose/0.015% Tween 80 vehicle that was also dosed alone (p.o./QD, 5 mL/kg) as a control in the study. FTY720 was administered p.o. at 0.3, 1.0, 3.0, 10.0 mg/kg p.o. as a single dose or p.o./QD at 0.5, 1.5, and 5.0 mg/kg in a chronic study. […] Mean arterial pressure and heart rate are shown as 1-hr and/or 24-hr mean values±SEM as described in the results. Blood samples in satellite rats were withdrawn at various timepoints as described in the results for analysis of plasma concentrations of the parent compound and, in the case of FTY720, also the phosphorylated metabolite, (S)-FTY720-P. Statistical analysis for the single-dose acute studies was based on one-way ANOVA to compare the treatment groups vs. vehicle for each time period after dosing (0–24 hrs, 24–48 hrs, and 48–72 hrs); statistical significance (p<0.05) was detected by Dunnett’s post-hoc test to compare treatment with vehicle controls. The statistical analysis in the chronic studies were based on one-way ANOVA with repeated measures to compare the treatment arms; statistical significance (p<0.05) was detected by Dunnett’s post-hoc test to compare treatment with vehicle controls.

anesthetized rats = assay: Anesthetized rat cardiovascular study (mean arterial pressure, heart rate); assay type: in vivo; details: for effect on heart rate of acute i.v. infusion: anesthetized rats, FTY720 0.1, 0.3, 1.0 mg/kg/20 min or BAF312 0.5, 1.5, 5.0 mg/kg/20 min; for heart rate, change below baseline / mean arterial pressure, change below baseline: FTY720 i.v.
Method: The cardiovascular effects of FTY720 and BAF312 were tested in anesthetized rats (180–200 g). In brief, male Sprague Dawley rats (Charles River) were anesthetized with Inactin (110 mg/kg i.p.) and a tracheotomy performed. The femoral artery and veins were catheterized for measurement of mean arterial pressure and heart rate, collection of blood samples at 20-min intervals (0.2 mL/sample), and for compound infusion/hydration as previously described, [24]; blood samples were also withdrawn in vehicle-treated control rats. FTY720, infused as a hydrochloride salt (0.1, 0.3, 1.0 mg/kg/20-min free base equivalent solubilized in a 100% PEG-400 vehicle), or BAF312 (0.5, 1.5, 5.0 mg/kg/20-min solubilized in a 100% PEG-400 vehicle) were administered via three escalating 20-min infusions (0.011 mL/min) followed by a 1-hr post-treatment period. A blood sample was withdrawn at 20, 40, 60, and 120-minutes for analysis of plasma concentrations of the parent compound, and in the case of FTY720, also the phosphorylated metabolite, (S)-FTY720-P. Statistical significance (p<0.05) was based on a t-test comparing treatment change from baseline (baseline was defined as the period from −30 to 0 minutes) vs. vehicle controls change from baseline at each timepoint without adjustment for multiple comparisons. In a separate group of anesthetized rats in which left ventricular (LV) contractility was also recorded with a Millar pressure transducer introduced into the left ventricle, BAF312 was infused in the same dosing regimen as the studies described above (0.5, 1.5, 5.0 mg/kg/20-min solubilized in a 100% PEG-400 vehicle) and effects on LV dP/dtmax were recorded.

[2] = system: mouse and rat experimental autoimmune encephalitis, EAE; set-up: method as in PMID 23436932; details: correlated with reduced circulating lymphocytes and monocytes; cited from earlier work
[3] = Heart tissue concentrations at the end of the repeat-dosing study; assay type: in vivo; details: rat
Method: In the repeat-dosing study with FTY720 (0.5, 1.5, and 5.0 mg/kg/d), plasma concentrations were also determined ( Table 3 ).

[4] = CSF concentrations after a single oral dose of FTY720, satellite rats; assay type: in vivo, rat; details: FTY720 3.0 or 10 mg/kg single oral dose, 4, 8, 24, 72-hrs post-dose
Method: Prior to longer-term hypertension studies with FTY720 an acute, single oral-dose study was performed to define the lower and upper limits of a pharmacologically-active dose with respect to acute hemodynamic effects. […] Values of both the parent and metabolite were detectable through at least 72-hrs post-dose. Tissue concentrations in the brain, skeletal muscle, and CSF were also determined in a separate group of satellite rats (please see Supplementary Figure, S2 ). Relative to the vehicle control group, FTY720 elicited dose-dependent and sustained increases in mean arterial pressure after a single oral dose, an effect that reached statistical significance in the 3 and 10 mg/kg dose groups (to 13.5±1.8 and 19.9±2.8 mmHg above baseline, respectively, based on a 24-hr mean values on day 1 vs. 3.6±1.5 mmHg in vehicle controls, Figure 4 , A). […] The acute hemodynamic effects of a single oral dose of BAF312 (0.3, 3.0, and 30 mg/kg) were also quantified.
A blood sample or tissues were harvested from satellite rats at 4, 8, 24, and 72-hrs post-dose. […] (TIF) Click here for additional data file.

[5] = anesthetized rat, end of 0.1 mg/kg/20 min infusion
[6] = anesthetized rat, end of 0.3 mg/kg/20 min infusion
[7] = anesthetized rat, end of 1.0 mg/kg/20 min infusion

Compound: CCc1cc(/C(C)=N/OCc2ccc(C3CCCCC3)c(C(F)(F)F)c2)ccc1CN1CC(C(=O)O)C1 [BAF312]
mean arterial pressure, average change in 24-mean values ([1]; BAF312 0.3 mg/kg/d p.o./QD): 3.0±0.5 mmHg
24-hr mean change in heart rate ([1]; BAF312 3 mg/kg dose group (so in the source), 14-day study): −2±2 beats/min
mean arterial pressure, average change in 24-mean values ([1]; BAF312 3.0 mg/kg/d p.o./QD): 1.1±0.5 mmHg
24-hr mean change in heart rate ([1]; BAF312 10 mg/kg dose group (so in the source), 14-day study): −2±3 beats/min
24-hr mean change in heart rate ([1]; BAF312 30 mg/kg dose group, 14-day study): −2±4 beats/min
mean arterial pressure, average change in 24-mean values ([1]; BAF312 30 mg/kg/d p.o./QD): 0.1±0.5 mmHg
effect on blood pressure / mean arterial pressure during repeat dosing ([1]; BAF312 0.3, 3.0, 30.0 mg/kg/d p.o.): no significant effect; also recorded: no significant increase
bradycardia during repeat dosing ([1]; BAF312 any dose group, 14-day study): no bradycardia was observed
effect on mean arterial pressure (anesthetized rats; anesthetized rat, BAF312 0.5, 1.5, 5.0 mg/kg/20-min i.v.): no effect
time heart rate remained statistically reduced (anesthetized rats; anesthetized rat, BAF312 i.v. infusion): 30 min
heart rate, change from baseline (anesthetized rats; anesthetized rat, BAF312 i.v., 10-min into the first infusion period (0.5 mg/kg/20 min), vehicle −6±4): −51±8 beats/min
heart rate vs vehicle (anesthetized rats; anesthetized rat, BAF312 i.v., latter half of the 60-min infusion): not different from vehicle controls
effect on heart rate of acute i.v. infusion (anesthetized rats): acute bradycardia
efficacious dose in EAE [2]: 0.3 mg/kg

mean tissue concentration in heart ([3]; FTY720 0.5 mg/kg/d p.o.): 513 ng/g
mean tissue concentration in heart ([3]; FTY720 1.5 mg/kg/d p.o.): 757 ng/g
mean tissue concentration in heart ([3]; FTY720 5.0 mg/kg/d p.o.): 3799 ng/g
concentration in the CSF [4]: No compound was detectable
Compound: CCCCCCCCc1ccc(CC[C@](N)(CO)COP(=O)(O)O)cc1 [FTY720-P]

mean tissue concentration in heart ([3]; FTY720 0.5 mg/kg/d p.o.): 379 ng/g
mean tissue concentration in heart ([3]; FTY720 1.5 mg/kg/d p.o.): 490 ng/g
mean tissue concentration in heart ([3]; FTY720 5.0 mg/kg/d p.o.): 1848 ng/g
concentration in the CSF [4]: No compound was detectable
Compound: CCCCCCCCc1ccc(CCC(N)(CO)CO)cc1 [FTY720]
24-hr mean change in heart rate ([1]; FTY720 0.5 mg/kg p.o./QD repeat dosing, vehicle −2±1): 11±2 beats/min
mean arterial pressure increase relative to baseline, 24-hr mean over the treatment period ([1]; FTY720 0.5 mg/kg/d p.o./QD, 0.5 mg/kg/day): 8.4 mmHg and 8.4±0.4 mmHg
24-hr mean change in heart rate ([1]; FTY720 1.5 mg/kg p.o./QD repeat dosing, vehicle −2±1): 1±1 beats/min
mean arterial pressure increase relative to baseline, 24-hr mean over the treatment period ([1]; FTY720 1.5 mg/kg/d p.o./QD, 1.5 mg/kg/day): 12.8 mmHg and 12.8±0.4 mmHg
24-hr mean change in heart rate ([1]; FTY720 5.0 mg/kg p.o./QD repeat dosing, vehicle −2±1): 1±3 beats/min
mean arterial pressure increase relative to baseline, 24-hr mean over the treatment period ([1]; FTY720 5.0 mg/kg/d p.o./QD, 5 mg/kg/day): 16.2 mmHg and 16.2±0.8 mmHg
bradycardia during repeat dosing ([1]; FTY720 0.5, 1.5, 5.0 mg/kg/d p.o.): no acute or sustained bradycardia
heart rate, change below baseline (anesthetized rats; [5]): −71±26 beats/min
mean arterial pressure, change below baseline (anesthetized rats; [5]): −9±3 mmHg
heart rate, change below baseline (anesthetized rats; [6]): −139±37 beats/min
mean arterial pressure, change below baseline (anesthetized rats; [6]): −22±4 mmHg
heart rate, change below baseline (anesthetized rats; [7]): −173±26 beats/min
mean arterial pressure, change below baseline (anesthetized rats; [7]): −24±4 mmHg
effect on heart rate of acute i.v. infusion (anesthetized rats): acute bradycardia
efficacious dose in EAE [2]: 0.3 mg/kg
